Measurements taken from patent US12077503B2, “Substituted cyclic amides and their use as herbicides” (FMC CORPORATION, priority 2015, dated 2024).

Assays:
Assay type in all cases: in vivo
[1] = system: velvetleaf (Abutilon theophrasti); assay: Test G Pre-Emergence Protocol; conditions: Abutilon theophrasti, pre-emergence, 312 h, evaluated after 13 days; for pest or weed control at 15.625 g/ha: 15.625 g ai/ha; for pest or weed control at 15.625 g/ha / pest or weed control at 250 g/ha: read-out: Velvetleaf damage rating (100=total damage to plant; 0=no damage to plant); for pest or weed control at 62.5 g/ha: 62.5 g ai/ha, 100=total damage to plant, 0=no damage to plant, read-out: plant damage rating, Velvetleaf; for pest or weed control at 250 g/ha: 250 g ai/ha
Outline: (§1)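 Spraying took place one day after sowing, at 15.625, 62.5 or 250 g/ha, using an acetone/water (50:50) spray solution containing 0.5% Tween 20. Plants were kept under glasshouse conditions (24/16 °C, 14 h light, 65% humidity, watered twice daily), and injury was rated 0–100 at day 13.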

[2] = system: ivy-leaved morning glory (Ipomoea hederacea); assay: Test G Pre-Emergence Protocol; conditions: Ipomoea, pre-emergence, 312 h, evaluated after 13 days; for pest or weed control at 15.625 g/ha: 15.625 g ai/ha, read-out: Morning-glory, Ivy-leaved damage rating (100=total damage to plant; 0=no damage to plant); for pest or weed control at 62.5 g/ha: 62.5 g ai/ha, 100=total damage to plant, 0=no damage to plant, read-out: plant damage rating, Morningglory, Ivy-leaved; for pest or weed control at 250 g/ha: 250 g ai/ha, read-out: Morningglory, Ivy-leaved damage rating (100=total damage to plant; 0=no damage to plant)
Outline: as §1

corn (Zea mays) [3] = assay: Test G Pre-Emergence Protocol; conditions: Zea mays, pre-emergence, 312 h, evaluated after 13 days; for plant injury at 15.625 g/ha: 15.625 g ai/ha; for plant injury at 15.625 g/ha / plant injury at 250 g/ha: read-out: Corn damage rating (100=total damage to plant; 0=no damage to plant); for plant injury at 62.5 g/ha: 62.5 g ai/ha, 100=total damage to plant, 0=no damage to plant, read-out: plant damage rating, Corn; for plant injury at 250 g/ha: 250 g ai/ha
Outline: as §1

[4] = system: giant foxtail (Setaria faberi); assay: Test G Pre-Emergence Protocol; conditions: Setaria faberi, pre-emergence, 312 h, evaluated after 13 days; for pest or weed control at 15.625 g/ha: 15.625 g ai/ha; for pest or weed control at 15.625 g/ha / pest or weed control at 250 g/ha: read-out: Foxtail, Giant damage rating (100=total damage to plant; 0=no damage to plant); for pest or weed control at 62.5 g/ha: 62.5 g ai/ha, 100=total damage to plant, 0=no damage to plant, read-out: plant damage rating, Foxtail, Giant; for pest or weed control at 250 g/ha: 250 g ai/ha
Outline: as §1

[5] = system: redroot pigweed (Amaranthus retroflexus); assay: Test G Pre-Emergence Protocol; conditions: Amaranthus retroflexus, pre-emergence, 312 h, evaluated after 13 days; for pest or weed control at 15.625 g/ha: 15.625 g ai/ha; for pest or weed control at 15.625 g/ha / pest or weed control at 250 g/ha: read-out: Pigweed, Redroot damage rating (100=total damage to plant; 0=no damage to plant); for pest or weed control at 62.5 g/ha: 62.5 g ai/ha, 100=total damage to plant, 0=no damage to plant, read-out: plant damage rating, Pigweed, Redroot; for pest or weed control at 250 g/ha: 250 g ai/ha
Outline: as §1

[6] = system: barnyardgrass (Echinochloa crus-galli); assay: Test G Pre-Emergence Protocol; conditions: Echinochloa crus-galli, pre-emergence, 312 h, evaluated after 13 days; for pest or weed control at 15.625 g/ha: 15.625 g ai/ha, read-out: Barnyard grass damage rating (100=total damage to plant; 0=no damage to plant); for pest or weed control at 62.5 g/ha: 62.5 g ai/ha, 100=total damage to plant, 0=no damage to plant, read-out: plant damage rating, Barnyardgrass; for pest or weed control at 250 g/ha: 250 g ai/ha, read-out: Barnyardgrass damage rating (100=total damage to plant; 0=no damage to plant)
Outline: as §1

[7] = system: velvetleaf (Abutilon theophrasti); assay: Test G Post-Emergence Protocol; conditions: Abutilon theophrasti, post-emergence, 312 h; for pest or weed control at 15.625 g/ha: 15.625 g ai/ha, evaluated after 13 days (100=total damage to plant; 0=no damage to plant), read-out: Velvetleaf damage rating; for pest or weed control at 62.5 g/ha: 62.5 g ai/ha, read-out: Velvetleaf damage rating (100=total damage to plant; 0=no damage to plant); for pest or weed control at 62.5 g/ha / pest or weed control at 250 g/ha: evaluated after 13 days; for pest or weed control at 250 g/ha: 250 g ai/ha, read-out: damage to plant, Velvetleaf (100=total damage to plant; 0=no damage to plant)
Outline: (§2)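 Sow in soil; grow 8 d (24/16 °C, 14 h light, 65% humidity); spray 15.625/62.5/250 g/ha in acetone:water 50:50 + 0.5% Tween 20; grow on, water twice daily; score damage 0–100 at 13 d.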

[8] = system: ivy-leaved morning glory (Ipomoea hederacea); assay: Test G Post-Emergence Protocol; conditions: Ipomoea, post-emergence, 312 h; for pest or weed control at 15.625 g/ha: 15.625 g ai/ha, evaluated after 13 days (100=total damage to plant; 0=no damage to plant), read-out: Morningglory, Ivy-leaved damage rating; for pest or weed control at 62.5 g/ha: 62.5 g ai/ha, read-out: Morningglory, Ivy-leaved damage rating (100=total damage to plant; 0=no damage to plant); for pest or weed control at 62.5 g/ha / pest or weed control at 250 g/ha: evaluated after 13 days; for pest or weed control at 250 g/ha: 250 g ai/ha, read-out: damage to plant, Morningglory, Ivy-leaved (100=total damage to plant; 0=no damage to plant)
Outline: as §2

corn (Zea mays) [9] = assay: Test G Post-Emergence Protocol; conditions: Zea mays, post-emergence, 312 h; for plant injury at 15.625 g/ha: 15.625 g ai/ha, evaluated after 13 days (100=total damage to plant; 0=no damage to plant), read-out: Corn damage rating; for plant injury at 62.5 g/ha: 62.5 g ai/ha, read-out: Corn damage rating (100=total damage to plant; 0=no damage to plant); for plant injury at 62.5 g/ha / plant injury at 250 g/ha: evaluated after 13 days; for plant injury at 250 g/ha: 250 g ai/ha, read-out: damage to plant, Corn (100=total damage to plant; 0=no damage to plant)
Outline: as §2

[10] = system: giant foxtail (Setaria faberi); assay: Test G Post-Emergence Protocol; conditions: Setaria faberi, post-emergence, 312 h; for pest or weed control at 15.625 g/ha: 15.625 g ai/ha, evaluated after 13 days (100=total damage to plant; 0=no damage to plant), read-out: Foxtail, Giant damage rating; for pest or weed control at 62.5 g/ha: 62.5 g ai/ha, read-out: Foxtail, Giant damage rating (100=total damage to plant; 0=no damage to plant); for pest or weed control at 62.5 g/ha / pest or weed control at 250 g/ha: evaluated after 13 days; for pest or weed control at 250 g/ha: 250 g ai/ha, read-out: damage to plant, Foxtail, Giant (100=total damage to plant; 0=no damage to plant)
Outline: as §2

[11] = system: redroot pigweed (Amaranthus retroflexus); assay: Test G Post-Emergence Protocol; conditions: Amaranthus retroflexus, post-emergence, 312 h; for pest or weed control at 15.625 g/ha: 15.625 g ai/ha, evaluated after 13 days (100=total damage to plant; 0=no damage to plant), read-out: Pigweed, Redroot damage rating; for pest or weed control at 62.5 g/ha: 62.5 g ai/ha, read-out: Pigweed, Redroot damage rating (100=total damage to plant; 0=no damage to plant); for pest or weed control at 62.5 g/ha / pest or weed control at 250 g/ha: evaluated after 13 days; for pest or weed control at 250 g/ha: 250 g ai/ha, read-out: damage to plant, Pigweed, Redroot (100=total damage to plant; 0=no damage to plant)
Outline: as §2

[12] = system: barnyardgrass (Echinochloa crus-galli); assay: Test G Post-Emergence Protocol; conditions: Echinochloa crus-galli, post-emergence, 312 h; for pest or weed control at 15.625 g/ha: 15.625 g ai/ha, evaluated after 13 days (100=total damage to plant; 0=no damage to plant), read-out: Barnyardgrass damage rating; for pest or weed control at 62.5 g/ha: 62.5 g ai/ha, read-out: Barnyardgrass damage rating (100=total damage to plant; 0=no damage to plant); for pest or weed control at 62.5 g/ha / pest or weed control at 250 g/ha: evaluated after 13 days; for pest or weed control at 250 g/ha: 250 g ai/ha, read-out: damage to plant, Barnyardgrass (100=total damage to plant; 0=no damage to plant)
Outline: as §2

Row | SMILES | pest or weed control at 15.625 g/ha [1] [%] | pest or weed control at 62.5 g/ha [1] [%] | pest or weed control at 250 g/ha [1] [%] | pest or weed control at 15.625 g/ha [2] [%] | pest or weed control at 62.5 g/ha [2] [%] | pest or weed control at 250 g/ha [2] [%] | plant injury at 15.625 g/ha (corn (Zea mays) [3]) [%] | plant injury at 62.5 g/ha (corn (Zea mays) [3]) [%] | plant injury at 250 g/ha (corn (Zea mays) [3]) [%] | pest or weed control at 15.625 g/ha [4] [%] | pest or weed control at 62.5 g/ha [4] [%] | pest or weed control at 250 g/ha [4] [%] | pest or weed control at 15.625 g/ha [5] [%] | pest or weed control at 62.5 g/ha [5] [%] | pest or weed control at 250 g/ha [5] [%] | pest or weed control at 15.625 g/ha [6] [%] | pest or weed control at 62.5 g/ha [6] [%] | pest or weed control at 250 g/ha [6] [%] | pest or weed control at 15.625 g/ha [7] [%] | pest or weed control at 62.5 g/ha [7] [%] | also measured
1 | Cc1nc(NC(=O)[C@@H]2C(=O)N(C)C[C@H]2c2ccc(C(F)(F)F)cc2)ccc1Cl (racemic) [Compound 1642] | 0 | 0 | 0 | 0 | 0 | 0 | 0 | 0 | 10 | 0 | 0 | 20 | 0 | 0 | 0 | 0 | 0 | 0 | 0 | 0 | pest or weed control at 250 g/ha [7]: 0%; pest or weed control at 15.625 g/ha [8]: 0%; pest or weed control at 62.5 g/ha [8]: 0%; pest or weed control at 250 g/ha [8]: 0%; plant injury at 15.625 g/ha (corn (Zea mays) [9]): 0%; plant injury at 62.5 g/ha (corn (Zea mays) [9]): 0%; plant injury at 250 g/ha (corn (Zea mays) [9]): 0%; pest or weed control at 15.625 g/ha [10]: 0%; pest or weed control at 62.5 g/ha [10]: 30%; pest or weed control at 250 g/ha [10]: 70%; pest or weed control at 15.625 g/ha [11]: 0%; pest or weed control at 62.5 g/ha [11]: 0%; pest or weed control at 250 g/ha [11]: 20%; pest or weed control at 15.625 g/ha [12]: 0%; pest or weed control at 62.5 g/ha [12]: 0%; pest or weed control at 250 g/ha [12]: 10%
2 | CN1C[C@@H](c2ccc(C(F)(F)F)cc2)[C@H](C(=O)Nc2cnccn2)C1=O (racemic) [Compound 1572] | 0 | 0 | 0 | 0 | 0 | 0 | 0 | 0 | 0 | 0 | 0 | 0 | 0 | 0 | 0 | 0 | 0 | 0 | 0 | 0 | pest or weed control at 250 g/ha [7]: 0%; pest or weed control at 15.625 g/ha [8]: 0%; pest or weed control at 62.5 g/ha [8]: 10%; pest or weed control at 250 g/ha [8]: 30%; plant injury at 15.625 g/ha (corn (Zea mays) [9]): 0%; plant injury at 62.5 g/ha (corn (Zea mays) [9]): 0%; plant injury at 250 g/ha (corn (Zea mays) [9]): 0%; pest or weed control at 15.625 g/ha [10]: 0%; pest or weed control at 62.5 g/ha [10]: 0%; pest or weed control at 250 g/ha [10]: 40%; pest or weed control at 15.625 g/ha [11]: 0%; pest or weed control at 62.5 g/ha [11]: 0%; pest or weed control at 250 g/ha [11]: 20%; pest or weed control at 15.625 g/ha [12]: 0%; pest or weed control at 62.5 g/ha [12]: 0%; pest or weed control at 250 g/ha [12]: 0%
3 | COc1c(Cl)ccc([C@H]2CNC(=O)[C@@H]2C(=O)Nc2cccc(F)n2)c1F (racemic) [Compound 1478] | 0 | 0 | 0 | 0 | 0 | 0 | 0 | 0 | 10 | 0 | 0 | 40 | 0 | 0 | 0 | 0 | 0 | 30 | 0 | 0 | pest or weed control at 250 g/ha [7]: 0%; pest or weed control at 15.625 g/ha [8]: 0%; pest or weed control at 62.5 g/ha [8]: 0%; pest or weed control at 250 g/ha [8]: 10%; plant injury at 15.625 g/ha (corn (Zea mays) [9]): 0%; plant injury at 62.5 g/ha (corn (Zea mays) [9]): 10%; plant injury at 250 g/ha (corn (Zea mays) [9]): 20%; pest or weed control at 15.625 g/ha [10]: 10%; pest or weed control at 62.5 g/ha [10]: 30%; pest or weed control at 250 g/ha [10]: 60%; pest or weed control at 15.625 g/ha [11]: 0%; pest or weed control at 62.5 g/ha [11]: 0%; pest or weed control at 250 g/ha [11]: 10%; pest or weed control at 15.625 g/ha [12]: 10%; pest or weed control at 62.5 g/ha [12]: 40%; pest or weed control at 250 g/ha [12]: 60%
